From article PMC8198056 (Molecules, 2021)
Numbered stars: 1 amine (or outer) side, 2 acyl side, 3 side chain; on linkers, the order of the positions; unused ones are H or OH. Square brackets hold non-standard residues; d marks the D form. Peptide text beside a SMILES is read from it. X1 = O=C1[C@@H](N[*:1])Cc2ccccc2CN1CCC(=O)[*:2]; Dmt = Cc1cc(O)cc(C)c1C[C@H](N)C(=O)O

Key:
[1] = system: non-human primates; set-up: method as in PMID 30158150; settings: cited from earlier work
[2] = molecular target: T1, human KOR (Homo sapiens, UniProt P41145); experiment: Competitive radioligand binding assay ([3H]U69,593), CHO-hKOR membranes; settings: [3H]U69,593, CHO-hOR membranes, mean ± SEM, read-out: Receptor Binding Ki
T1 construct: expressed in transfected cells; host or cells: CHO (CHO-hKOR; gift of Lawrence Toll, SRI International)

[3] = system: mice; experiment: Formalin test (formalin-induced acute inflammatory pain); settings: for %Antinociceptive effect Phase I: Phase I 0-5 min; for %Antinociceptive effect Phase II: Phase II 15-60 min
[4] = system: rats; set-up: method as in PMID 27035422, PMID 28135212; settings: i.v. at equianalgesic doses to rats; cited from earlier work
[5] = system: mice; experiment: Open-field test (spontaneous locomotor activity)
[6] = molecular target: T2, human DOR (Homo sapiens, UniProt P41143); experiment: [35S]GTPγS binding assay, CHO-hDOR membranes; format: biochemical
T2 construct: expressed in transfected cells; host or cells: CHO (CHO-hDOR; gift of Lawrence Toll, SRI International)

[7] = molecular target: T3, human NOP receptor (Homo sapiens, UniProt P41146); experiment: [35S]GTPγS binding assay, CHO-hNOP membranes; format: biochemical; settings: relative to maximum effect of nociceptin (100%)
T3 construct: expressed in transfected cells; host or cells: CHO (CHO-hNOP; gift of Lawrence Toll, SRI International)

[8] = system: mice; experiment: Conditioned place preference (CPP); settings: 1.22 and 2.44 µmol/kg s.c., 4-day conditioning
[9] = molecular target: T1, human KOR; experiment: [35S]GTPγS binding assay, CHO-hKOR membranes; format: biochemical
[10] = molecular target: T2, human DOR; experiment: Competitive radioligand binding assay ([3H]diprenorphine), CHO-hDOR membranes; settings: CHO-hOR membranes, mean ± SEM, read-out: Receptor Binding Ki
[11] = system: mice; experiment: CFA-induced chronic inflammatory pain, thermal sensitivity (Hargreaves test); format: in vivo, mouse
[12] = system: mice; experiment: CFA-induced chronic inflammatory pain, mechanical sensitivity (von Frey test); format: in vivo, mouse; settings: 1.22 µmol/kg s.c.
[13] = set-up: method as in PMID 27035422; settings: cited from earlier work
[14] = system: rats; settings: acute i.t. administration in rats; cited from earlier work
[15] = molecular target: T4, human MOR (Homo sapiens, UniProt P35372); experiment: [35S]GTPγS binding assay, CHO-hMOR membranes; format: biochemical
T4 construct: expressed in transfected cells; host or cells: CHO (CHO-hMOR; gift of Lawrence Toll, SRI International)

[16] = molecular target: T4, human MOR; experiment: Competitive radioligand binding assay ([3H]DAMGO), CHO-hMOR membranes; settings: CHO-hOR membranes, mean ± SEM, read-out: Receptor Binding Ki

Question: With `CC(C)C1CCC(N2CCC3(CC2)C(=O)N(CCNS(N)(=O)=O)Cc2ccccc23)CC1` (stereo not drawn) [AT-121] as the compound, how does the “Antinociception and side effects” value [1] read?
Answer: Its value is “produced antinociception with reduced respiratory depression and physical dependence”.

Question: Which results are given for `CC[C@H](C)[C@H](NC(=O)[C@H](CCCNC(=N)N)NC(=O)[C@H](Cc1ccc(O)cc1)NC(=O)[C@H](Cc1ccc(O)cc1)NC(=O)[C@H](CCCNC(=N)N)NC(=O)CCN1Cc2ccccc2C[C@H](NC(=O)[C@@H](CCCNC(=N)N)NC(=O)[C@@H](N)Cc2c(C)cc(O)cc2C)C1=O)C(=O)N[C@@H](CCCCN)C(N)=O` [KGNOP1, H-Dmt-D-Arg-Aba-β-Ala-Arg-Tyr-Tyr-Arg-Ile-Lys-NH2] (H-[Dmt][dR][X1]RYYRIK-NH2)?
Answer: Ki [2]: 13.4 ± 4.3 nM; %Antinociceptive effect Phase I ([3]; 0.12 µmol/kg s.c.): 33.9 ± 3.8%; %Antinociceptive effect Phase II ([3]; 0.12 µmol/kg s.c.): 2.3 ± 11.1%; %Antinociceptive effect Phase I ([3]; 0.49 µmol/kg s.c.): 33.7 ± 9.3%; %Antinociceptive effect Phase II ([3]; 0.49 µmol/kg s.c.): 51.8 ± 9.7%; Pain response counted between 15 and 60 min ([3]; 1.22 µmol/kg s.c.): almost complete inhibition of the pain response; %Antinociceptive effect Phase I ([3]; 1.22 µmol/kg s.c.): 55.6 ± 7.3%; %Antinociceptive effect Phase II ([3]; 1.22 µmol/kg s.c.): 71.4 ± 6.8%; Antinociceptive effect after pre-treatment with SB-612111 ([3]; KGNOP1 1.22 µmol/kg s.c., SB-612111 6.6 µmol/kg s.c., -30 min, Phase I and II): significantly reversed the antinociceptive response; Antinociceptive effect after pre-treatment with naltrexone ([3]; KGNOP1 1.22 µmol/kg s.c., naltrexone 2.6 µmol/kg s.c., -15 min, Phase I and II): significant antagonism of the antinociceptive effect; Antinociceptive ED50 (95% CL), Phase I ([3]; s.c., acute nociceptive Phase I (0-5 min)): 1.17 µmol/kg; Antinociceptive ED50 (95% CL), Phase II ([3]; s.c., inflammatory Phase II (15-60 min)): 0.55 µmol/kg; Respiratory depression in contrast to morphine [4]: significantly less respiratory depression; Spontaneous locomotor activity (distance traveled) vs saline ([5]; 1.22 µmol/kg s.c. daily for 4 days): no significant alteration in locomotion; Spontaneous locomotor activity (distance traveled) vs saline ([5]; 2.44 µmol/kg s.c., only at day 1): significant decrease in locomotion; EC50 [6]: 51.6 ± 17.8 nM; Emax ([6]; relative to maximum effect of DPDPE (100%)): 106 ± 3%; Emax [7]: 99 ± 8%; CPP response vs saline [8]: no significant preference at any tested dose; EC50 [9]: 112 ± 32 nM; Emax ([9]; relative to maximum effect of U69,593 (100%)): 37 ± 3%; Ki [10]: 12.2 ± 3.5 nM; Time span of significant inhibition of thermal hyperalgesia vs saline ([11]; 0.49 µmol/kg s.c.): 30 to 240 min; % reversal of thermal sensitivity ([11]; 0.49 µmol/kg s.c., 30 min): 23.5%; % reversal of thermal sensitivity ([11]; 0.49 µmol/kg s.c., 1 h): 38.1%; % reversal of thermal sensitivity ([11]; 0.49 µmol/kg s.c., 2 h): 59.8%; % reversal of thermal sensitivity ([11]; 0.49 µmol/kg s.c., 3 h): 40.2%; % reversal of thermal sensitivity ([11]; 0.49 µmol/kg s.c., 4 h): 25.4%; % reversal of thermal sensitivity ([11]; 0.49 µmol/kg s.c., 5 h): 15.7%; % reversal of thermal sensitivity ([11]; 0.49 µmol/kg s.c., 6 h): 9.3%; % reversal of thermal sensitivity ([11]; 0.49 µmol/kg s.c., 7 h): -1.46%; % reversal of thermal sensitivity ([11]; 0.49 µmol/kg s.c., 8 h): 6.12%; % reversal of thermal sensitivity ([11]; 0.49 µmol/kg s.c., 24 h): -3.79%; Time of maximum efficacy, Hargreaves test ([11]; 1.22 µmol/kg s.c.): two hours; Time span of significant inhibition of thermal hyperalgesia vs saline ([11]; 1.22 µmol/kg s.c.): 30 to 360 min; % reversal of thermal sensitivity ([11]; 1.22 µmol/kg s.c., 30 min): 31.9%; % reversal of thermal sensitivity ([11]; 1.22 µmol/kg s.c., 1 h): 54.4%; % reversal of thermal sensitivity ([11]; 1.22 µmol/kg s.c., 2 h): 98.6%; % reversal of thermal sensitivity ([11]; 1.22 µmol/kg s.c., 3 h): 78.6%; % reversal of thermal sensitivity ([11]; 1.22 µmol/kg s.c., 4 h): 58.2%; % reversal of thermal sensitivity ([11]; 1.22 µmol/kg s.c., 5 h): 26.0%; % reversal of thermal sensitivity ([11]; 1.22 µmol/kg s.c., 6 h): 26.7%; % reversal of thermal sensitivity ([11]; 1.22 µmol/kg s.c., 7 h): 10.2%; % reversal of thermal sensitivity ([11]; 1.22 µmol/kg s.c., 8 h): 9.15%; % reversal of thermal sensitivity ([11]; 1.22 µmol/kg s.c., 24 h): 6.72%; Duration of reversal of CFA-induced thermal hyperalgesia ([11]; s.c.): up to 6 h; Time points of significant effect on mechanical stimulation vs saline [12]: one hour; % reversal of mechanical sensitivity ([12]; 30 min): -6.71%; % reversal of mechanical sensitivity ([12]; 1 h): 65.4%; % reversal of mechanical sensitivity ([12]; 2 h): 19.1%; % reversal of mechanical sensitivity ([12]; 3 h): -8.73%; % reversal of mechanical sensitivity ([12]; 4 h): 21.1%; % reversal of mechanical sensitivity ([12]; 5 h): -0.50%; % reversal of mechanical sensitivity ([12]; 6 h): -12.9%; % reversal of mechanical sensitivity ([12]; 7 h): -8.30%; % reversal of mechanical sensitivity ([12]; 8 h): -2.42%; % reversal of mechanical sensitivity ([12]; 24 h): -8.66%; Half-life time t1/2 in human plasma [13]: 9.77 h; Effect on evoked locomotor activity in the rotarod test [14]: lack of KGNOP1′s effect on the evoked locomotor activity; EC50 [15]: 2.5 ± 0.81 nM; Emax ([15]; relative to maximum effect of DAMGO (100%)): 92 ± 4%; Ki [16]: 0.42 ± 0.08 nM
